Results as given in ChEMBL document CHEMBL1124555, “9-Amino-1,2,3,4-tetrahydroacridin-1-ols: synthesis and evaluation as potential Alzheimer's disease therapeutics” (J Med Chem, 1989).

Tests used:
Mus musculus [1] = organism: Mus musculus; format: functional; details: at 2.5 mg/kg
Description: Reversal of scopolamine-induced memory impairment in mice at 2.5 mg/Kg administered subcutaneously.

[2] = target: Norepinephrine transporter (Rattus norvegicus, UniProt Q9WTR4)
Description: Inhibition of norepinephrine reuptake in rat whole brains minus cerebellar

[3] = target: Sodium-dependent dopamine transporter (Rattus norvegicus, UniProt P23977); format: functional
Description: Inhibition of the reuptake of dopamine in rat corpora striata.

Acetylcholinesterase = target: T1, Acetylcholinesterase (Rattus norvegicus, UniProt P37136)
T1 sequence (P37136 whole entry): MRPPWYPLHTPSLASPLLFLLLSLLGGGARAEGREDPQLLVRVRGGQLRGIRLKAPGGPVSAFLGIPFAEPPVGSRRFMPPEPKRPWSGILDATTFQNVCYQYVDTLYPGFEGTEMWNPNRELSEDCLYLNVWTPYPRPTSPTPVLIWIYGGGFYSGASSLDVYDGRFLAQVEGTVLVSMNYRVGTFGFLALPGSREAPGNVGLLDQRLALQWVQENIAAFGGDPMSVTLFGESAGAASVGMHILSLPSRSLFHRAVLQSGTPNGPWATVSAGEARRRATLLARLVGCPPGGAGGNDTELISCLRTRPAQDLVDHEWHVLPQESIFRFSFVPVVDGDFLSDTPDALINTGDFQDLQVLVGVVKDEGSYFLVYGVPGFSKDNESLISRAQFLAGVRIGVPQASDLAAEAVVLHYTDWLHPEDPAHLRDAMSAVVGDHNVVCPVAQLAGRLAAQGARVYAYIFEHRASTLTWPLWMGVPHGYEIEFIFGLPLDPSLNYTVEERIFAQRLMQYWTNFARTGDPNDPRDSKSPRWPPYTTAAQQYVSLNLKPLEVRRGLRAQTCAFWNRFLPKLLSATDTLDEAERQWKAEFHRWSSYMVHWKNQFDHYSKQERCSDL
Description: In vitro inhibition against acetylcholinesterase in rat striata.

Mus musculus [4] = organism: Mus musculus; format: functional; details: at […]
Description: Reversal of scopolamine-induced memory impairment in mice at 0.31 mg/Kg administered subcutaneously.

Mus musculus [5] = organism: Mus musculus; format: functional; details: at 1.25 mg/kg
Description: Reversal of scopolamine-induced memory impairment in mice at 1.25 mg/Kg administered subcutaneously.

Mus musculus [6] = organism: Mus musculus; format: functional; details: at 0.63 mg/kg
Description: Reversal of scopolamine-induced memory impairment in mice at 0.63 mg/Kg administered subcutaneously.

Mus musculus [7] = organism: Mus musculus; format: functional; details: at 5 mg/kg
Description: Reversal of scopolamine-induced memory impairment in mice at 5 mg/Kg administered subcutaneously.

[8] = target: Sodium-dependent serotonin transporter (Rattus norvegicus, UniProt P31652); format: functional
Sodium-dependent serotonin transporter, sequence (P31652 whole entry): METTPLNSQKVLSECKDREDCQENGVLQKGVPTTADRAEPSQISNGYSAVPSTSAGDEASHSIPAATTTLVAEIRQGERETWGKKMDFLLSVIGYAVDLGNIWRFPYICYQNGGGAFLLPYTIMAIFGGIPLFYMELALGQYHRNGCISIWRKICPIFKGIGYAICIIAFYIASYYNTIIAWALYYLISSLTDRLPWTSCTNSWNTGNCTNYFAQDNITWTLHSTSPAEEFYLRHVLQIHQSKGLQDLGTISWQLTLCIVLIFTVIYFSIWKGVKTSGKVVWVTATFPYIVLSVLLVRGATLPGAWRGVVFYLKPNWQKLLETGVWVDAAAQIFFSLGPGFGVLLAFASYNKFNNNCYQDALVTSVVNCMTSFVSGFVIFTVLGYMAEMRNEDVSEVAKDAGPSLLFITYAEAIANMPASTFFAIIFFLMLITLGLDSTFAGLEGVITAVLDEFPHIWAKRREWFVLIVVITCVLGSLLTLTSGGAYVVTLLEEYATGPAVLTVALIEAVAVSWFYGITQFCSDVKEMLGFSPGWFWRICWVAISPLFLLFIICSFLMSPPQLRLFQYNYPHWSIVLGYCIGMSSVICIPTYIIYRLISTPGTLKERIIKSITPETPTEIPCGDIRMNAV
Description: Inhibition of serotonin reuptake in rat whole brains without cerebellum

Mus musculus [9] = organism: Mus musculus; format: functional; details: at 0.16 mg/kg
Description: Reversal of scopolamine-induced memory impairment in mice at 0.16 mg/Kg administered subcutaneously.

in vivo = details: rat, ip
Description: Toxicity evaluated in rats after intraperitoneal administration.

[10] = Toxicity was evaluated in rats, after intraperitoneal administration;Value ranges from (40-80).; format: organism-based; details: rat, in vivo, ip
[11] = Toxicity was evaluated in rats, after intraperitoneal administration;Value ranges from(40-80); format: organism-based; details: rat, in vivo, ip

Sodium-dependent dopamine transporter, sequence (P23977 whole entry): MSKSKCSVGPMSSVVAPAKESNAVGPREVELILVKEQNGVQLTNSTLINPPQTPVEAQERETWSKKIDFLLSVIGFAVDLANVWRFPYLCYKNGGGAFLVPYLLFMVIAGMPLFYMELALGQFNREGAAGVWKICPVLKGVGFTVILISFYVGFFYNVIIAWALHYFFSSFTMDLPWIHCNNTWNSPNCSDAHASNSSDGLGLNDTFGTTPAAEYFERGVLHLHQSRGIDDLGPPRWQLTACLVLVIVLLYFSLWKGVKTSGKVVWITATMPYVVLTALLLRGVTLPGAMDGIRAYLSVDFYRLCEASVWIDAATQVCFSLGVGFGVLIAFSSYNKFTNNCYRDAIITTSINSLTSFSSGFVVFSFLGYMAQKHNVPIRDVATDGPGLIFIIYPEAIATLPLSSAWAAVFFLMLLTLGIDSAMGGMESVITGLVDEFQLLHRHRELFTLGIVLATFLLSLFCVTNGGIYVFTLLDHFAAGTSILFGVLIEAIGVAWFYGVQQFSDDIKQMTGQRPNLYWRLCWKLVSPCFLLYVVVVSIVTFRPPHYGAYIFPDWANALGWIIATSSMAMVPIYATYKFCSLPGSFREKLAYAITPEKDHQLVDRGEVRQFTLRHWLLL
Norepinephrine transporter, sequence (Q9WTR4 whole entry): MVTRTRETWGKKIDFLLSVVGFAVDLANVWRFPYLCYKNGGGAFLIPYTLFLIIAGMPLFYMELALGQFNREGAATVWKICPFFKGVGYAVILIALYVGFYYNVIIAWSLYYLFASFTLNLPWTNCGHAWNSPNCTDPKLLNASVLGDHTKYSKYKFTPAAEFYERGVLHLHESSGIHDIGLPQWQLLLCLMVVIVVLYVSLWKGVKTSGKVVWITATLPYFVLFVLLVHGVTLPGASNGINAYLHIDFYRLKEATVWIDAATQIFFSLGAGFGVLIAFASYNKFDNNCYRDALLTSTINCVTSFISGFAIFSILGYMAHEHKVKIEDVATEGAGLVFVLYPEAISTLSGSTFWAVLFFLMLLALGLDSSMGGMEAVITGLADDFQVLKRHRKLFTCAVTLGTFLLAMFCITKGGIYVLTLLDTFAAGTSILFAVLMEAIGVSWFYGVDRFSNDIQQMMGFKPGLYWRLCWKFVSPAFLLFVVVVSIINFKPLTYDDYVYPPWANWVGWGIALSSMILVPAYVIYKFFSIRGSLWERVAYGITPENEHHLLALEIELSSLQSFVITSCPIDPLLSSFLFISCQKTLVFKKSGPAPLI

| SMILES | Animals (Mus musculus [1]) [%] | IC50 [2] [µM] | IC50 [3] [µM] | IC50 (Acetylcholinesterase) [µM] | Animals (Mus musculus [4]) [%] | Animals (Mus musculus [5]) [%] | Animals (Mus musculus [6]) [%] | Animals (Mus musculus [7]) [%] | IC50 [8] [µM] | Animals (Mus musculus [9]) [%] | LD50 (in vivo) [mg/kg] | LD50 [10] [mg/kg] | LD50 [11] [mg/kg] |
| --- | --- | --- | --- | --- | --- | --- | --- | --- | --- | --- | --- | --- | --- |
| OC1CCCc2nc3ccccc3c(NCCc3ccccc3)c21 (stereo not given) | 0 | 1.4 | 4.7 | 3.39 | 20 | 23 | 0 | 0 | 7.7 | 7 | > 80 |  |  |
| Nc1c2c(nc3ccccc13)CCC2O (stereo not given) | 7 |  |  | 5.97 | 13 | 0 | 0 | 7 |  | 13 | > 80 |  |  |
| OC1CCCc2nc3cc(Cl)ccc3c(NCc3ccccc3)c21 (stereo not given) | 7 | 0.82 | 1.3 | 1.3 | 13 | 7 | 7 | 0 | 15 | 0 | > 80 |  |  |
| OC1CCCc2nc3ccccc3c(NCc3ccc(Cl)cc3)c21 (stereo not given) |  | 1.1 | 9.8 | 27.2 |  |  |  |  | 5.7 |  | > 80 |  |  |
| OC1CCCc2nc3ccccc3c(NCc3cccc(Cl)c3)c21 (stereo not given) |  |  |  | 13.3 |  |  |  |  |  |  | > 80 |  |  |
| OC1CCCc2nc3ccccc3c(NCc3ccccc3F)c21 (stereo not given) | 20 | 0.11 | 0.41 | 41.3 | 14 | 7 | 33 | 7 | 17 | 7 |  | < 80 |  |
| Cc1ccc(CNc2c3c(nc4ccccc24)CCCC3O)cc1 (stereo not given) |  | 1.1 | 2.2 | 21 |  |  |  |  | 8 |  | > 80 |  |  |
| Cc1cccc(CNc2c3c(nc4ccccc24)CCCC3O)c1 (stereo not given) | 13 | 0.22 | 0.51 | 24.5 | 7 | 20 | 20 | 20 | 5.5 | 7 |  |  | < 80 |
| OC1CCCc2nc3ccccc3c(NCc3cccc(C(F)(F)F)c3)c21 (stereo not given) | 0 | 0.93 | 2.4 | 14.2 | 0 | 7 | 0 | 0 | 2.3 | 0 |  | < 80 |  |
| OC1CCCc2nc3ccccc3c(NCCCC(c3ccccc3)c3ccccc3)c21 (stereo not given) | 0 | 1.5 | 2.1 | 49.3 | 6 | 13 | 6 | 6 | 5.7 | 20 | > 80 |  |  |
| COc1cccc(CNc2c3c(nc4ccccc24)CCCC3O)c1 (stereo not given) | 0 | 1.5 | 2.1 | 21.1 | 0 | 0 | 0 | 0 | 6.2 | 0 | > 80 |  |  |
| COc1ccccc1CNc1c2c(nc3ccccc13)CCCC2O (stereo not given) | 13 | 4.8 | 0.72 | 36 | 7 | 7 | 20 | 27 | 9.8 | 33 | 80 |  |  |
| OC1CCCc2nc3cc(F)ccc3c(NCc3ccccc3C(F)(F)F)c21 (stereo not given) | 0 | 0.54 | 0.31 | 20.1 | 20 | 0 | 7 | 13 | 20 | 0 | > 80 |  |  |
| OC1CCCc2nc3ccccc3c(NCCCOc3ccccc3)c21 (stereo not given) | 7 |  |  | 3.98 | 0 | 13 | 0 |  |  | 0 | > 80 |  |  |
| Nc1c2c(nc3cc(C(F)(F)F)ccc13)CCCC2O (stereo not given) | 21 |  |  | 1.77 | 26 | 33 | 71 | 33 |  | 40 |  |  | < 80 |
| OC1CCCc2nc3ccccc3c(NCc3cccc(F)c3)c21 (stereo not given) | 14 | 0.12 | 0.3 | 13.1 | 23 | 0 | 7 | 21 | 6.2 | 33 |  | < 80 |  |
